# Experimental data as given in patent publication US11970494B2, “6-heteroaryloxy benzimidazoles and azabenzimidazoles as JAK2 inhibitors” (Ajax Therapeutics, Inc., priority 2021, dated 2024).
# Target: T1, JAK2 (JH1 domain-catalytic, Y1007F,Y1008F) kinase (Homo sapiens, UniProt O60674, Y1007F/Y1008F)
# T1 construct: made in house; host or cells: transiently transfected HEK293 cells
# Experiment: JAK2 Binding Assay (JAK2 JH1 Domain Binding Assay)
# Conditions: JAK2 JH1 domain binding, qPCR detection; read-out: JAK2 Kd
# T1 sequence (O60674 849-1124 Y1007F/Y1008F limits assumed): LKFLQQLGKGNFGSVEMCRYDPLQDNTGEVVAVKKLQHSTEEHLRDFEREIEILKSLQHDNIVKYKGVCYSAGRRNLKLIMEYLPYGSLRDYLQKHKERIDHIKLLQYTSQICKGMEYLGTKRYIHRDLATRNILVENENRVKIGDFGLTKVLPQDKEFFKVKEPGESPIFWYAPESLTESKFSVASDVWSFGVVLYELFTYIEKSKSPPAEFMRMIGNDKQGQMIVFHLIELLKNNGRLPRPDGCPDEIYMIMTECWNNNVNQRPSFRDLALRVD
row,Kd [nM],Compound
1,< 10,"Cn1cc(C(F)(F)F)cc(Nc2nc3ncc(Oc4ccnc(NC(=O)C[C@@H]5CCCCO5)c4)c(C#N)c3n2C)c1=O (single isomer, unassigned) [Example I-74-a]"
2,< 10,"CN1CCO[C@H](CC(=O)Nc2cc(Oc3cnc4nc(Nc5cc(C(F)(F)F)cn(C)c5=O)n(C)c4c3Cl)ccn2)C1 (single isomer, unassigned) [Example I-78-a]"
3,< 10,"CN1CCO[C@@H](CC(=O)Nc2cc(Oc3cnc4nc(Nc5cc(C(F)(F)F)cn(C)c5=O)n(C)c4c3Cl)ccn2)C1 (single isomer, unassigned) [Example I-78-b]"
4,< 10,"CN1CCO[C@H](CC(=O)Nc2cc(Oc3cnc4nc(Nc5cc(C(F)(F)F)cn(C)c5=O)n(C)c4c3C#N)ccn2)C1 (single isomer, unassigned) [Example I-90-a]"
5,< 10,"CN1CCO[C@@H](CC(=O)Nc2cc(Oc3cnc4nc(Nc5cc(C(F)(F)F)cn(C)c5=O)n(C)c4c3C#N)ccn2)C1 (single isomer, unassigned) [Example I-90-b]"
6,< 10,"CC(=O)Nc1cc(Oc2cnc3nc(Nc4cc([C@H]5CCOC5)nc(C(F)(F)F)c4)n(C)c3c2Cl)ccn1 (single isomer, unassigned) [Example I-91-a]"
7,< 10,"CC(=O)Nc1cc(Oc2cnc3nc(Nc4cc([C@@H]5CCOC5)nc(C(F)(F)F)c4)n(C)c3c2Cl)ccn1 (single isomer, unassigned) [Example I-91-b]"
8,< 10,"CC(=O)Nc1cc(Oc2cnc3nc(Nc4cc([C@H]5CCOC5)nc(C(F)(F)F)c4)n(C)c3c2C#N)ccn1 (single isomer, unassigned) [Example I-95-i]"
9,< 10,"CC(=O)Nc1cc(Oc2cnc3nc(Nc4cc([C@@H]5CCOC5)nc(C(F)(F)F)c4)n(C)c3c2C#N)ccn1 (single isomer, unassigned) [Example I-95-ii]"
10,< 10,"CC(=O)Nc1cc(Oc2cnc3nc(Nc4cc([C@H]5CCCN5C)cc(C(F)(F)F)c4)n(C)c3c2Cl)ccn1 (single isomer, unassigned) [Example I-102-a]"
11,< 10,"CC(=O)Nc1cc(Oc2cnc3nc(Nc4cc([C@@H]5CCCN5C)cc(C(F)(F)F)c4)n(C)c3c2Cl)ccn1 (single isomer, unassigned) [Example I-102-b]"
12,< 10,"CC(=O)Nc1cc(Oc2cnc3nc(Nc4ccc([C@H]5CCCN5C)c(C(F)(F)F)c4)n(C)c3c2Cl)ccn1 (single isomer, unassigned) [Example I-108-a]"
13,< 10,"CC(=O)Nc1cc(Oc2cnc3nc(Nc4ccc([C@@H]5CCCN5C)c(C(F)(F)F)c4)n(C)c3c2Cl)ccn1 (single isomer, unassigned) [Example I-108-b]"
14,< 10,"CC(=O)Nc1cc(Oc2cnc3nc(Nc4ccc([C@H]5CCCN5C)c(C(F)(F)F)c4)n(C)c3c2C#N)ccn1 (single isomer, unassigned) [Example I-109-a]"
15,< 10,"CC(=O)Nc1cc(Oc2cnc3nc(Nc4ccc([C@@H]5CCCN5C)c(C(F)(F)F)c4)n(C)c3c2C#N)ccn1 (single isomer, unassigned) [Example I-109-b]"
16,< 10,"CNC(=O)Nc1cc(Oc2cnc3nc(Nc4cc(C(F)(F)F)cn(C)c4=O)n(C)c3c2C#N)ccn1 [Example I-5, 1-(4-((7-cyano-1-methyl-2-((1-methyl-2-oxo-5-(trifluoromethyl)-1,2-dihydropyridin-3-yl)amino)-1H-imidazo[4,5-b]pyridin-6-yl)oxy)pyridin-2-yl)-3-methylurea]"

row,Kd [nM],Compound
1,< 10,"CN1CCN(C(=O)Nc2cc(Oc3cnc4nc(Nc5cc(C(F)(F)F)cn(C)c5=O)n(C)c4c3C#N)ccn2)CC1 [Example I-6, N-(4-((7-cyano-1-methyl-2-((1-methyl-2-oxo-5-(trifluoromethyl)-1,2-dihydropyridin-3-yl)amino)-1H-imidazo[4,5-b]pyridin-6-yl)oxy)pyridin-2-yl)-4-methylpiperazine-1-carboxamide]"
2,< 10,"Cn1cc(C(F)(F)F)cc(Nc2nc3ncc(Oc4ccnc(NC(=O)N5CC(O)C5)c4)c(C#N)c3n2C)c1=O [Example I-8, N-(4-((7-cyano-1-methyl-2-((1-methyl-2-oxo-5-(trifluoromethyl)-1,2-dihydropyridin-3-yl)amino)-1H-imidazo[4,5-b]pyridin-6-yl)oxy)pyridin-2-yl)hydroxyazetidine-1-carboxamide]"
3,< 10,"COC1CN(C(=O)Nc2cc(Oc3cnc4nc(Nc5cc(C(F)(F)F)cn(C)c5=O)n(C)c4c3C#N)ccn2)C1 [Example I-9, N-(4-((7-cyano-1-methyl-2-((1-methyl-2-oxo-5-(trifluoromethyl)-1,2-dihydropyridin-3-yl)amino)-1H-imidazo[4,5-b]pyridin-6-yl)oxy)pyridin-2-yl)-3-methoxyazetidine-1-carboxamide]"
4,< 10,"COC(=O)Nc1cc(Oc2cnc3nc(Nc4cc(C(F)(F)F)n(C5CC6(COC6)C5)n4)n(C)c3c2Cl)ccn1 [Example I-10, Methyl(4-((2-((1-(2-oxaspiro[3.3]heptan-6-yl)-5-(trifluoromethyl)-1H-pyrazol-3-yl)amino)-7-chloro-1-methyl-1H-imidazo[4,5-b]pyridin-6-yl)oxy)pyridin-2-yl)carbamate]"
5,< 10,"Cn1cc(C(F)(F)F)cc(Nc2nc3ncc(Oc4ccnc(NC(=O)N5CCCC5)c4)c(C#N)c3n2C)c1=O [Example I-11, N-(4-((7-cyano-1-methyl-2-((1-methyl-2-oxo-5-(trifluoromethyl)-1,2-dihydropyridin-3-yl)amino)-1H-imidazo[4,5-b]pyridin-6-yl)oxy)pyridin-2-yl)pyrrolidine-1-carboxamide]"
6,< 10,"COCCOC(=O)Nc1cc(Oc2cnc3nc(Nc4cc(C(F)(F)F)cn(C)c4=O)n(C)c3c2C#N)ccn1 [Example I-12, 2-methoxyethyl(4-((7-cyano-1-methyl-2-((1-methyl-2-oxo-5-(trifluoromethyl)-1,2-dihydropyridin-3-yl)amino)-1H-imidazo[4,5-b]pyridin-6-yl)oxy)pyridin-2-yl)carbamate]"
7,< 10,"CO[C@@H]1CCN(C(=O)Nc2cc(Oc3cnc4nc(Nc5cc(C(F)(F)F)cn(C)c5=O)n(C)c4c3C#N)ccn2)C1 [Example I-13, (R)-N-(4-((7-cyano-1-methyl-2-((1-methyl-2-oxo-5-(trifluoromethyl)-1,2-dihydropyridin-3-yl)amino)-1H-imidazo[4,5-b]pyridin-6-yl)oxy)pyridin-2-yl)methoxypyrrolidine-1-carboxamide]"
8,< 10,"Cn1cc(C(F)(F)F)cc(Nc2nc3ncc(Oc4ccnc(NC(=O)OC5COC5)c4)c(C#N)c3n2C)c1=O [Example I-16, Oxetan-3-yl(4-((7-cyano-1-methyl-2-((1-methyl-2-oxo-5-(trifluoromethyl)-1,2-dihydropyridin-3-yl)amino)-1H-imidazo[4,5-b]pyridin-6-yl)oxy)pyridin-2-yl)carbamate]"
9,< 10,"Cn1cc(C(F)(F)F)cc(Nc2nc3ncc(Oc4ccnc(NC(=O)O[C@H]5CCOC5)c4)c(C#N)c3n2C)c1=O [Example I-17, (S)-Tetrahydrofuran-3-yl(4-((7-cyano-1-methyl-2-((1-methyl-2-oxo-5-(trifluoromethyl)-1,2-dihydropyridin-3-yl)amino)-1H-imidazo[4,5-b]pyridin-6-yl)oxy)pyridin-2-yl)carbamate]"
10,< 10,"CN(C)CCOC(=O)Nc1cc(Oc2cnc3nc(Nc4cc(C(F)(F)F)cn(C)c4=O)n(C)c3c2Cl)ccn1 [Example I-19, 2-(Dimethylamino)ethyl(4-((7-chloro-1-methyl-2-((1-methyl-2-oxo-5-(trifluoromethyl)-1,2-dihydropyridin-3-yl)amino)-1H-imidazo[4,5-b]pyridin-6-yl)oxy)pyridin-2-yl)carbamate]"
11,< 10,"Cn1cc(C(F)(F)F)cc(Nc2nc3ncc(Oc4ccnc(NC(=O)OCCO)c4)c(C#N)c3n2C)c1=O [Example I-20, 2-Hydroxyethyl(4-((7-cyano-1-methyl-2-((1-methyl-2-oxo-5-(trifluoromethyl)-1,2-dihydropyridin-3-yl)amino)-1H-imidazo[4,5-b]pyridin-6-yl)oxy)pyridin-2-yl)carbamate]"
12,< 10,"CN(C)C(=O)Nc1cc(Oc2cnc3nc(Nc4cc5n(n4)CCCC5(F)F)n(C)c3c2C#N)ccn1 [Example I-21, 3-(4-((7-cyano-2-((4,4-difluoro-4,5,6,7-tetrahydropyrazolo[1,5-a]pyridin-2-yl)amino)-1-methyl-1H-imidazo[4,5-b]pyridin-6-yl)oxy)pyridin-2-yl)-1,1-dimethylurea]"
13,< 10,"COC(=O)Nc1cc(Oc2cnc3nc(Nc4cc5n(n4)CCCC5(F)F)n(C)c3c2C#N)ccn1 [Example I-22, Methyl(4-((7-cyano-2-((4,4-difluoro-4,5,6,7-tetrahydropyrazolo[1,5-a]dpyridin-2-yl)amino)-1-methyl-1H-imidazo[4,5-b]pyridin-6-yl)oxy)pyridin-2-yl)carbamate]"
14,< 10,"Cn1c(Nc2cc3n(n2)CCCC3(F)F)nc2ncc(Oc3ccnc(NC(=O)N4CCCC4)c3)c(C#N)c21 [Example I-23, N-(4-((7-cyano-2-((4,4-difluoro-4,5,6,7-tetrahydropyrazolo[1,5-a]pyridin-2-yl)amino)-1-methyl-1H-imidazo[4,5-b]pyridin-6-yl)oxy)pyridin-2-yl)pyrrolidine-1-carboxamide]"
15,10 to 50,"CN1CCN(C(=O)Nc2cc(Oc3cnc4nc(Nc5cc6n(n5)CCCC6(F)F)n(C)c4c3C#N)ccn2)CC1 [Example I-24, N-(4-((7-cyano-2-((4,4-difluoro-4,5,6,7-tetrahydropyrazolo[1,5-a]pyridin-2-yl)amino)-1-methyl-1H-imidazo[4,5-b]pyridin-6-yl)oxy)pyridin-2-yl)-4-methylpiperazine-1-carboxamide]"
16,10 to 50,"Cn1c(Nc2cc3n(n2)CCCC3(F)F)nc2ncc(Oc3ccnc(NC(=O)N4CCOCC4)c3)c(C#N)c21 [Example I-25, N-(4-((7-cyano-2-((4,4-difluoro-4,5,6,7-tetrahydropyrazolo[1,5-a]pyridin-2-yl)amino)-1-methyl-1H-imidazo[4,5-b]pyridin-6-yl)oxy)pyridin-2-yl)morpholine-4-carboxamide]"
